Earlier results, collected in US20020122815A1, “Compositions and methods of carbohydrate dosing” (priority 2001, published 2002).

Legend:
serum glucose levels [1] = conditions: compared with glucose or sucrose
[2] = in large amounts
serum glucose levels [3] = conditions: serum glucose response to 50 g carbohydrate as percentage of standard meal (usually 50 g glucose)

| Structure (SMILES) | rise in serum glucose (serum glucose levels [1]) | adverse effect [2] | Glycemic Index (serum glucose levels [3]) |
| --- | --- | --- | --- |
| OC[C@@H](O)[C@@H](O)[C@H](O)[C@H](O)CO [Mannitol] | less of a rise in serum glucose than glucose or sucrose | may cause diarrhea | – |
| O=C(CO)[C@@H](O)[C@H](O)[C@H](O)CO [fructose] | – | – | 23 |
| OC[C@@H](O)[C@@H](O)[C@H](O)[C@@H](O)CO [sorbitol] | less of a rise in serum glucose than glucose or sucrose | may cause diarrhea | – |
| OC[C@H]1O[C@@](CO)(O[C@H]2O[C@H](CO)[C@@H](O)[C@H](O)[C@H]2O)[C@@H](O)[C@@H]1O [sucrose] | – | – | 60-65 |
